Among the data in patent publication US8901147B2, “Bi-heteroaryl compounds as Vps34 inhibitors” (Novartis AG, priority 2010, dated 2014) are IC50 values, retold here.

The target of the assay is recombinant human Vps34 (Homo sapiens, UniProt Q8NEB9). Kind of assay: Vps34 KinaseGlo assay. In kind it is biochemical. The settings on record: KinaseGlo luminescence ATP detection; PI/OG substrate; 1 μM ATP; room temperature; 8 concentrations, n=2. The method, then: It was then resuspended in 3% OctylGlucoside by vortexing and stored at 4° C. 5 μL of a mix of PI/OG with recombinant human Vps34 were added. Kinase reactions were started by addition of 5 μl of ATP-mix containing in a final volume 10 μL 10 mM TRIS-HCl pH 7.5, 3 mM MgCl2, 50 mM NaCl, 0.05% CHAPS, 1 mM DTT and 1 μM ATP, and occurred at room temperature. Reactions were stopped with 10 μl of KinaseGlo and plates were read 10 minutes later in a Synergy2 reader using an integration time of 0.1 seconds per well.
In general terms: Kinase-Glo reads ATP consumption through a luciferase reaction.

recombinant human Vps34, sequence (Q8NEB9 whole entry): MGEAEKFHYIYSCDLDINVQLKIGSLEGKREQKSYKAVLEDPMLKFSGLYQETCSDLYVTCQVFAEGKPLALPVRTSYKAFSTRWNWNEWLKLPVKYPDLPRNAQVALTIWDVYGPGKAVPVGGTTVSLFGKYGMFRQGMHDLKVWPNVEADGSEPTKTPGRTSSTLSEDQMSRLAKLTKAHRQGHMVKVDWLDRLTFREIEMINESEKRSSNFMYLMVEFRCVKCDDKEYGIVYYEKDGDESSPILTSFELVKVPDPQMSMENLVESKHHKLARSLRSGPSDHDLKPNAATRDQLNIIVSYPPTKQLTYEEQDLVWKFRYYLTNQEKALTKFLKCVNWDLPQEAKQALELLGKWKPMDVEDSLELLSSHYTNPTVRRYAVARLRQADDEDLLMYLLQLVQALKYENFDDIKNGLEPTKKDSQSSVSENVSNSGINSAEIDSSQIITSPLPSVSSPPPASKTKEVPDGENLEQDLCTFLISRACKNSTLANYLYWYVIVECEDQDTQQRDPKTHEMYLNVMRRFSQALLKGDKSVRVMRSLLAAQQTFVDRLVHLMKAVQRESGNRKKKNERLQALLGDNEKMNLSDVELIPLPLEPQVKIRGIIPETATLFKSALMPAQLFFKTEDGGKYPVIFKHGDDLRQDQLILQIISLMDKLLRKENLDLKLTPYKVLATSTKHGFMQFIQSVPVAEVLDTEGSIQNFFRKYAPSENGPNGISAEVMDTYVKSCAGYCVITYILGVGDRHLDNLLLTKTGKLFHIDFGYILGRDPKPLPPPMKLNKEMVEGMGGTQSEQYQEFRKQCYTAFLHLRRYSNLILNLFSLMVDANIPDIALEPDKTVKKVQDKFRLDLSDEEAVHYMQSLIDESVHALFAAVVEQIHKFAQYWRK

By IC50 is commonly meant the concentration needed to halve the response being measured. `OCCNc1ncc(-c2ccnc(Nc3ccncc3)n2)c(CC2CC2)n1` [Example 10m, 2-(4′-(cyclopropylmethyl)-2-(pyridin-4-ylamino)-4,5′-bipyrimidin-2′-ylamino)ethanol]: the IC50 came to 11.5 nM.
As for `CNc1ncc(-c2ccnc(Nc3cccnc3)n2)c(CC2CC2)n1` [Example 14l, 4′-(cyclopropylmethyl)-N^2′-methyl-N^2-(pyridin-3-yl)-4,5′-bipyrimidine-2,2′-diamine], the IC50 turned out to be 48 nM.
As for `c1cc(Nc2nccc(-c3cnc(NC4CC4)nc3CC3CC3)n2)ccn1` [Example 12c, N^2′-cyclopropyl-4′-(cyclopropylmethyl)-N^2-(pyridin-4-yl)-4,5′-bipyrimidine-2,2′-diamine], the IC50 is 45.5 nM.
Take `Nc1ncc(-c2ccnc(NCCc3c[nH]cn3)n2)c(CC2CC2)n1` [Example 15t, N^2-(2-(1H-imidazol-4-yl)ethyl)-4′-(cyclopropylmethyl)-4,5′-bipyrimidine-2,2′-diamine]: the IC50 turned out to be 187 nM.
Consider `Cc1nc(N)ncc1-c1ccnc(Nc2ccncc2)n1` [Example 21, 4′-Methyl-N^2-pyridin-4-yl-[4,5′]bipyrimidinyl-2,2′-diamine], for which the IC50 is 22.2 nM.
As to `O[C@H]1CC[C@H](Nc2nccc(-c3cncnc3CC3CC3)n2)CC1` [Example 6a, Trans-4-{[4′-(cyclopropylmethyl)-4,5′-bipyrimidin-2-yl]amino}cyclohexanol], the IC50 is 1000 nM.
Take `Nc1ncc(-c2ccnc(Nc3ccc4[nH]ccc4c3)n2)c(CC2CC2)n1` [Example 15l, 4′-(cyclopropylmethyl)-N^2-(1H-indol-5-yl)-4,5′-bipyrimidine-2,2′-diamine]: the IC50 was found to be 25 nM.
As to `Nc1ncc(-c2ccnc(Nc3ccc(Cl)cc3)n2)c(CC2CC2)n1` [Example 15o, N^2-(4-chlorophenyl)-4′-(cyclopropylmethyl)-4,5′-bipyrimidine-2,2′-diamine], the IC50 is 57 nM.
With `CC(C)(O)CNc1ncc(-c2ccnc(Nc3ccncc3)n2)c(CC2CC2)n1` [Example 10t, 1-(4′-(cyclopropylmethyl)-2-(pyridin-4-ylamino)-4,5′-bipyrimidin-2′-ylamino)-2-methylpropan-2-ol] the figure was 15 nM; with `CNc1ncc(-c2ccnc(Nc3ccc(OC)c(OC)c3)n2)c(CC2CC2)n1` [Example 14q, 4′-(cyclopropylmethyl)-N^2-(3,4-dimethoxyphenyl)-N^2′-methyl-4,5′-bipyrimidine-2,2′-diamine], 862 nM; with `Cc1cc(Nc2nccc(-c3cnc(N)nc3CC3CC3)n2)on1` [Example 15h, 4′-Cyclopropylmethyl-N^2-(3-methyl-isoxazol-5-yl)-[4,5′]bipyrimidinyl-2,2′-diamine], 48 nM.
With `CCC(C)Nc1ncc(-c2ccnc(Nc3ccncc3)n2)c(CC2CC2)n1` (stereo not shown) [Example 10s, N^2′-sec-butyl-4′-(cyclopropylmethyl)-N^2-(pyridin-4-yl)-4,5′-bipyrimidine-2,2′-diamine] the figure was 51.5 nM; with `c1cc(Nc2nccc(-c3cnc(NC4CCC4)nc3CC3CC3)n2)ccn1` [Example 10f, N^2′-cyclobutyl-4′-(cyclopropylmethyl)-N^2-(pyridin-4-yl)-4,5′-bipyrimidine-2,2′-diamine], 45.5 nM; with `CCNc1ncc(-c2ccnc(Nc3ccncc3)n2)c(CC2CC2)n1` [Example 10b, 4′-(cyclopropylmethyl)-N^2′-ethyl-N^2-(pyridin-4-yl)-4,5′-bipyrimidine-2,2′-diamine], 20 nM.
For the compound `C[C@@H](CO)Nc1ncc(-c2ccnc(Nc3ccncc3)n2)c(CC2CC2)n1` [Example 10q, (S)-2-(4′-(cyclopropylmethyl)-2-(pyridin-4-ylamino)-4,5′-bipyrimidin-2′-ylamino)propan-1-ol], the IC50 worked out at 53 nM.
With `Nc1ncc(-c2ccnc(NCCc3c[nH]c4ccccc34)n2)c(CC2CC2)n1` [Example 15p, N^2-(2-(1H-indol-3-yl)ethyl)-4′-(cyclopropylmethyl)-4,5′-bipyrimidine-2,2′-diamine] the figure was 122 nM.
With `CC(C)(C)Nc1ncc(-c2ccnc(Nc3ccncc3)n2)c(CC2CC2)n1` [Example 10i, N^2′-tert-butyl-4′-(cyclopropylmethyl)-N^2-(pyridin-4-yl)-4,5′-bipyrimidine-2,2′-diamine] the figure was 35 nM; with `Nc1ncc(-c2ccnc(N[C@H]3CC[C@H](O)CC3)n2)c(CC2CC2)n1` [Example 6b, (1r, 4r)-4-(2′-amino-4′-(cyclopropylmethyl)-4,5′-bipyrimidin-2-ylamino)cyclohexanol], 264 nM; with `CC(C)(CO)CNc1nccc(-c2cnc(N)nc2CC2CC2)n1` [Example 15g, 3-(2′-amino-4′-(cyclopropylmethyl)-4,5′-bipyrimidin-2-ylamino)-2,2-dimethylpropan-1-ol], 2230 nM.
For the compound `CC(C)(O)CNc1ncc(-c2ccnc(Nc3ccc(C#N)cc3)n2)c(CC2CC2)n1` [Example 16b, 4-(4′-(cyclopropylmethyl)-2′-(2-hydroxy-2-methylpropylamino)-4,5′-bipyrimidin-2-ylamino)benzonitrile], the IC50 worked out at 25 nM.
For the compound `CNc1ncc(-c2ccnc(N[C@H]3CC[C@H](C(=O)O)CC3)n2)c(CC2CC2)n1` [Example 14n, (1r,4r)-4-(4′-(cyclopropylmethyl)-2′-(methylamino)-4,5′-bipyrimidin-2-ylamino)cyclohexanecarboxylic acid], the IC50 is 439 nM.
As for `Nc1ncc(-c2ccnc(Nc3ccc4c(c3)OCO4)n2)c(CC2CC2)n1` [Example 15m, N^2-(benzo[d][1,3]dioxol-5-yl)-4′-(cyclopropylmethyl)-4,5′-bipyrimidine-2,2′-diamine], the IC50 is 101 nM.
For `CC(C)(O)CNc1ncc(-c2ccnc(Nc3ccc(F)cc3)n2)c(CC2CC2)n1` [Example 16c, 1-(4′-(cyclopropylmethyl)-2-(4-fluorophenylamino)-4,5′-bipyrimidin-2′-ylamino)-2-methylpropan-2-ol] the value was 150 nM.
With `Cc1cc2cc(Nc3nccc(-c4cnc(N)nc4CC4CC4)n3)ccc2[nH]1` [Example 15w, 4′-(cyclopropylmethyl)-N^2-(2-methyl-1H-indol-5-yl)-4,5′-bipyrimidine-2,2′-diamine], the IC50 turned out to be 36 nM.
With `Nc1ncc(-c2ccnc(Nc3ccncc3)n2)c(C(F)(F)F)n1` [Example 22, N2-(pyridin-4-yl)-4′-(trifluoromethyl)-4,5′-bipyrimidine-2,2′-diamine] the figure was 31 nM; with `C[C@@H](Nc1ncc(-c2ccnc(Nc3ccncc3)n2)c(CC2CC2)n1)c1ccccc1` [Example 10h, (R)-4′-(cyclopropylmethyl)-N^2′-(1-phenylethyl)-N^2-(pyridin-4-yl)-4,5′-bipyrimidine-2,2′-diamine], 258 nM; with `CC(C)Nc1ncc(-c2ccnc(Nc3ccncc3)n2)c(CC2CC2)n1` [Example 12a, 4′-Cyclopropylmethyl-N^2′-isopropyl-N^2-pyridin-4-yl-[4,5′]bipyrimidinyl-2,2′-diamine], 34.5 nM.
`CNc1ncc(-c2ccnc(Nc3cnc4ccccc4c3)n2)c(CC2CC2)n1` [Example 14d, 4′-(cyclopropylmethyl)-N^2′-methyl-N^2-(quinolin-3-yl)-4,5′-bipyrimidine-2,2′-diamine]: the IC50 worked out at 133 nM.
For `c1cc(Nc2nccc(-c3cnc(NC4CCCC4)nc3CC3CC3)n2)ccn1` [Example 10e, N2′-cyclopentyl-4′-(cyclopropylmethyl)-N2-(pyridin-4-yl)-4,5′-bipyrimidine-2,2′-diamine] the value was 78.5 nM.
With `c1ccc(CNc2ncc(-c3ccnc(Nc4ccncc4)n3)c(CC3CC3)n2)cc1` [Example 10c, N^2′-benzyl-4′-(cyclopropylmethyl)-N^2-(pyridin-4-yl)-4,5′-bipyrimidine-2,2′-diamine] the figure was 75.5 nM; with `CC(C)(O)CNc1ncc(-c2ccnc(N[C@H]3CC[C@H](NS(C)(=O)=O)CC3)n2)c(CC2CC2)n1` [Example 16g, N-((1r,4r)-4-(4′-(cyclopropylmethyl)-2′-(2-hydroxy-2-methylpropylamino)-4,5′-bipyrimidin-2-ylamino)cyclohexyl)methanesulfonamide], 872 nM; with `Nc1ncc(-c2ccnc(Nc3ccccn3)n2)c(CC2CC2)n1` [Example 15e, 4′-(cyclopropylmethyl)-N^2-(pyridin-2-yl)-4,5′-bipyrimidine-2,2′-diamine], 196 nM.
With `CC(C)(O)CNc1ncc(-c2ccnc(Nc3ccc(Cl)cc3)n2)c(CC2CC2)n1` [Example 16e, 1-(2-(4-chlorophenylamino)-4′-(cyclopropylmethyl)-4,5′-bipyrimidin-2′-ylamino)-2-methylpropan-2-ol] the figure was 105 nM; with `CNc1ncc(-c2ccnc(NC3CCCCC3)n2)c(CC2CC2)n1` [Example 14e, N^2-Cyclohexyl-4′-cyclopropylmethyl-N^2′-methyl-[4,5′]bipyrimidinyl-2,2′-diamine], 1100 nM; with `Nc1ncc(-c2ccnc(Nc3ccc(F)cc3)n2)c(CC2CC2)n1` [Example 15j, 4′-(cyclopropylmethyl)-N^2-(4-fluorophenyl)-4,5′-bipyrimidine-2,2′-diamine], 53 nM.
On to `CC(=O)Nc1ccc(Nc2nccc(-c3cnc(N)nc3CC3CC3)n2)cc1` [Example 15n, N-(4-(2′-amino-4′-(cyclopropylmethyl)-4,5′-bipyrimidin-2-ylamino)phenyl)acetamide], for which the IC50 came to 62 nM.
As to `CC(C)(O)CNc1ncc(-c2ccnc(Nc3ccncc3)n2)c(C(F)(F)F)n1` [Example 24, 2-methyl-1-(2-(pyridin-4-ylamino)-4′-(trifluoromethyl)-4,5′-bipyrimidin-2′-ylamino)propan-2-ol], the IC50 was found to be 96 nM.
